Results from PubChem BioAssay AID192 (DTP/NCI, 2004).
Values joined by “and” are separate entries in the source; they are usually repeats but may differ in a detail not shown here. Equal values may be shown once. Inconclusive results and toxic doses are left out. The calls were made as follows: active = survival T/C of 150% or more; inactive = T/C below 125% in these data.

System: BDF1 mice, B16 melanoma ip, median survival T/C
Assay: NCI In Vivo Anticancer Drug Screen. Data for tumor model B16 Melanoma (intraperitoneal) in B6D2F1 (BDF1) mice
Settings: endpoint: median survival time, higher = longer survival
How it was run: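 Transplantable tumor model; survival or tumor size measured; reported as T/C, treated over vehicle control.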

[1] = dose: 50.0 mg/kg/injection, schedule: Q01DX009 (ip), vehicle: Klucel (hydroxypropylcellulose) (HPC)
[2] = dose: 100.0 mg/kg/injection, schedule: Q01DX009 (ip), vehicle: Klucel (hydroxypropylcellulose) (HPC)
[3] = dose: 2.5 mg/kg/injection, schedule: Q01DX009 (ip), vehicle: saline
[4] = dose: 2.5 mg/kg/injection, schedule: Q04DX003 (ip), vehicle: saline with Tween-80
[5] = dose: 5.0 mg/kg/injection, schedule: Q01DX009 (ip), vehicle: saline
[6] = dose: 5.0 mg/kg/injection, schedule: Q04DX003 (ip), vehicle: saline with Tween-80
[7] = dose: 100.0 mg/kg/injection, schedule: Q04DX003 (ip), vehicle: Klucel (hydroxypropylcellulose) (HPC)
[8] = dose: 200.0 mg/kg/injection, schedule: Q04DX003 (ip), vehicle: Klucel (hydroxypropylcellulose) (HPC)
[9] = dose: 6.25 mg/kg/injection, schedule: Q01DX009 (ip), vehicle: saline
[10] = dose: 12.5 mg/kg/injection, schedule: Q01DX009 (ip), vehicle: saline
[11] = dose: 25.0 mg/kg/injection, schedule: Q01DX009 (ip), vehicle: saline
[12] = dose: 50.0 mg/kg/injection, schedule: Q01DX009 (ip), vehicle: saline
[13] = dose: 400.0 mg/kg/injection, schedule: Q01DX009 (ip), vehicle: Klucel (hydroxypropylcellulose) (HPC)
[14] = dose: 200.0 mg/kg/injection, schedule: Q01DX009 (ip), vehicle: Klucel (hydroxypropylcellulose) (HPC)
[15] = dose: 6.25 mg/kg/injection, schedule: Q01DX009 (ip), vehicle: saline with Tween-80
[16] = dose: 12.5 mg/kg/injection, schedule: Q01DX009 (ip), vehicle: saline with Tween-80

Measured: T/C

C1CC[N-]CC1.CC(=N\O)/C(C)=N/O.CC(=N\O)/C(C)=N/O.[CH-]1CCCCC1.[Co+2]
inactive: [1] 97 % of control | [2] 94 % of control

[Cu+2].[NH-]CC(=O)O.[NH-]CC(=O)O
inactive: [3] 97 % of control | [4] 121 % of control | [5] 95 % of control and 102 % of control | [6] 115 % of control | dose: 10.0 mg/kg/injection, schedule: Q01DX009 (ip), vehicle: saline 95 % of control and 100 % of control | dose: 10.0 mg/kg/injection, schedule: Q04DX003 (ip), vehicle: saline with Tween-80 100 % of control

N#CC(Nc1ccccc1)c1ccccc1 (stereo unspecified)
inactive: [1] 100 % of control | [2] 94 % of control

COc1ccc(NC(=O)O/N=C2\CN(S(=O)(=O)c3ccc(C)cc3)CCc3ccccc32)cc1
inactive: [7] 102 % of control | [8] 97 % of control | dose: 400.0 mg/kg/injection, schedule: Q04DX003 (ip), vehicle: Klucel (hydroxypropylcellulose) (HPC) 88 % of control

O=C1C=CC(n2cc(F)c(=O)[nH]c2=O)O1 (stereo unspecified)
inactive: [9] 97 % of control | [10] 95 % of control | [11] 96 % of control | [12] 107 % of control | dose: 100.0 mg/kg/injection, schedule: Q01DX009 (ip), vehicle: saline 97 % of control

CCCCCCCCCc1ccc(OC(=O)CCC)cc1
inactive: dose: 12.5 mg/kg/injection, schedule: Q01DX009 (ip), vehicle: Klucel (hydroxypropylcellulose) (HPC) 106 % of control | dose: 25.0 mg/kg/injection, schedule: Q01DX009 (ip), vehicle: Klucel (hydroxypropylcellulose) (HPC) 94 % of control | [13] 87 % of control

c1cc2n(n1)CCN2
inactive: [10] 102 % of control | dose: 18.75 mg/kg/injection, schedule: Q01DX009 (ip), vehicle: saline 116 % of control | [11] 102 % of control | dose: 37.5 mg/kg/injection, schedule: Q01DX009 (ip), vehicle: saline 100 % of control | [12] 106 % of control | dose: 75.0 mg/kg/injection, schedule: Q01DX009 (ip), vehicle: saline 93 % of control | dose: 150.0 mg/kg/injection, schedule: Q01DX009 (ip), vehicle: saline 106 % of control | dose: 200.0 mg/kg/injection, schedule: Q04DX003 (ip), vehicle: saline with Tween-80 108 % of control | dose: 400.0 mg/kg/injection, schedule: Q04DX003 (ip), vehicle: saline with Tween-80 108 % of control

CC(=O)OC(OC(C)=O)c1ccc([N+](=O)[O-])cc1
inactive: dose: 100.0 mg/kg/injection, schedule: Q01DX009 (ip), vehicle: saline with Tween-80 93 % of control | dose: 200.0 mg/kg/injection, schedule: Q01DX009 (ip), vehicle: saline with Tween-80 95 % of control | dose: 400.0 mg/kg/injection, schedule: Q01DX009 (ip), vehicle: saline with Tween-80 86 % of control

COC12C(COC(N)=O)C3=C(C(=O)C(C)=C(N)C3=O)N1CC1C2N1C (stereo unspecified)
inactive: dose: 0.25 mg/kg/injection, schedule: Q01DX009 (ip), vehicle: saline 120 % of control | dose: 0.5 mg/kg/injection, schedule: Q01DX009 (ip), vehicle: saline 123 % of control | dose: 1.0 mg/kg/injection, schedule: Q01DX009 (ip), vehicle: saline 114 % of control | dose: 2.0 mg/kg/injection, schedule: Q01DX009 (ip), vehicle: Klucel (hydroxypropylcellulose) (HPC) 106 % of control | dose: 4.0 mg/kg/injection, schedule: Q01DX009 (ip), vehicle: Klucel (hydroxypropylcellulose) (HPC) 124 % of control

COC(=O)/C=C/NC(=O)c1ccccc1C(=O)OC
inactive: [7] 86 % of control | [14] 97 % of control | [8] 86 % of control

CC(O)COc1ccc(OCc2ccccc2)cc1 (stereo unspecified)
inactive: [2] 106 % of control | [14] 109 % of control | [13] 100 % of control

O=[N+]([O-])c1cc(Cl)c(Cl)cc1NS(=O)(=O)c1ccccc1
inactive: dose: 150.0 mg/kg/injection, schedule: Q01DX009 (ip), vehicle: saline with Tween-80 100 % of control | dose: 300.0 mg/kg/injection, schedule: Q01DX009 (ip), vehicle: saline with Tween-80 90 % of control

COc1cccc2c1C(=O)c1c(O)c3c(c(O)c1C2=O)C[C@@](O)(C(C)=O)C[C@@H]3OC1CC(N(C)C)C(O)C(C)O1 (stereo partly specified)
inactive: dose: 0.63 mg/kg/injection, schedule: Q01DX001 (ip), vehicle: water 100 % of control | dose: 1.25 mg/kg/injection, schedule: Q01DX001 (ip), vehicle: water 110 % of control and 112 % of control | dose: 2.5 mg/kg/injection, schedule: Q01DX001 (ip), vehicle: water 104 % of control | dose: 3.46 mg/kg/injection, schedule: Q04DX003 (ip), vehicle: water 98 % of control and 122 % of control | dose: 5.76 mg/kg/injection, schedule: Q04DX003 (ip), vehicle: water 106 % of control and 117 % of control | dose: 7.2 mg/kg/injection, schedule: Q01DX001 (ip), vehicle: water 104 % of control and 116 % of control | dose: 9.6 mg/kg/injection, schedule: Q04DX003 (ip), vehicle: water 102 % of control | dose: 12.0 mg/kg/injection, schedule: Q01DX001 (ip), vehicle: water 106 % of control and 121 % of control

c1cc[c]([Sn][c]2ccccc2)cc1
inactive: dose: 0.8 mg/kg/injection, schedule: Q04DX003 (ip), vehicle: saline with Tween-80 97 % of control | dose: 1.2 mg/kg/injection, schedule: Q04DX003 (ip), vehicle: saline with Tween-80 97 % of control | dose: 1.25 mg/kg/injection, schedule: Q01DX009 (ip), vehicle: saline 95 % of control | dose: 1.8 mg/kg/injection, schedule: Q04DX003 (ip), vehicle: saline with Tween-80 100 % of control | [3] 111 % of control | [4] 121 % of control | [5] 109 % of control | [6] 115 % of control

Nc1nc(=O)n(C2OC(CO)C(O)C2O)cc1F (stereo unspecified)
inactive: [9] 116 % of control | dose: 9.0 mg/kg/injection, schedule: Q01DX009 (ip), vehicle: saline 109 % of control | [10] 96 % of control | dose: 18.0 mg/kg/injection, schedule: Q01DX009 (ip), vehicle: saline 116 % of control | dose: 24.0 mg/kg/injection, schedule: Q01DX009 (ip), vehicle: saline 118 % of control | dose: 54.0 mg/kg/injection, schedule: Q01DX009 (ip), vehicle: saline 103 % of control

CCC(=O)c1ccc2c(c1)N(CCCN(C)C)c1ccccc1S2
inactive: dose: 3.12 mg/kg/injection, schedule: Q01DX009 (ip), vehicle: saline with Tween-80 96 % of control | [15] 86 % of control | [16] 96 % of control

CC(=O)CC(C)=NCC(C)N=C(C)CC(C)=O.c1cc[c]([Sn][c]2ccccc2)cc1 (stereo unspecified)
inactive: [6] 119 % of control

CC(C)CC(NC(=O)OC(C)(C)C)C(=O)ON1C(=O)CCC1=O (stereo unspecified)
inactive: [15] 93 % of control | [16] 93 % of control | dose: 25.0 mg/kg/injection, schedule: Q01DX009 (ip), vehicle: saline with Tween-80 96 % of control | dose: 50.0 mg/kg/injection, schedule: Q01DX009 (ip), vehicle: saline with Tween-80 90 % of control and 92 % of control

CCOC(=O)C(=O)c1c(C)[nH]c2ccccc12
inactive: [2] 113 % of control | [14] 106 % of control | [13] 106 % of control

C[CH2][Pb]([CH2]C)([CH2]C)[n]1cnc2ccccc21
inactive: dose: 0.75 mg/kg/injection, schedule: Q01DX009 (ip), vehicle: Klucel (hydroxypropylcellulose) (HPC) 95 % of control | dose: 1.5 mg/kg/injection, schedule: Q01DX009 (ip), vehicle: Klucel (hydroxypropylcellulose) (HPC) 96 % of control
